16 compounds from ChEMBL document CHEMBL1201862, “PubChem BioAssay data set” (2004) can be followed below.

In general, EC50 refers to the concentration needed to bring the measured effect to its halfway point. For orientation: IC50 means the concentration needed to halve the response being measured. Usually AC50 stands for the midpoint of the concentration-response curve, whichever way the signal moves.

The target of test [1] is T1, Lysosomal acid glucosylceramidase (Homo sapiens, UniProt P04062).
T1 sequence (P04062 whole entry): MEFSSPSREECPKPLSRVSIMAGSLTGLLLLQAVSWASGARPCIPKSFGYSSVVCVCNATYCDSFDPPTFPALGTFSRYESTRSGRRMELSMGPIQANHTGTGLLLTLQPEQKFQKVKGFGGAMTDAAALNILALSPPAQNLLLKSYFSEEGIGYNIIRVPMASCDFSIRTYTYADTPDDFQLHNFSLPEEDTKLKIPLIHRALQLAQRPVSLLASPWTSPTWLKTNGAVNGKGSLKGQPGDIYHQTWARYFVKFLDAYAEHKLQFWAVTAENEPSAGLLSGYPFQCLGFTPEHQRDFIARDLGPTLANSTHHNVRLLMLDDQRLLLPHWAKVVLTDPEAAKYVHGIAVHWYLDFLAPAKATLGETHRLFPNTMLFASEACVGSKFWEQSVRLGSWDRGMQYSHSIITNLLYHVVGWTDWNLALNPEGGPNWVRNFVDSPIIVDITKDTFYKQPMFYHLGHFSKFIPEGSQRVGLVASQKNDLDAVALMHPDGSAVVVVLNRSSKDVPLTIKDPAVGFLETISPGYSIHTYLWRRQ
Nature of the test: Dose response cell-based high throughput screening assay to identify enhancers of beta-glucosidase activity. [Related pubchem assays: 784 ]. The test is classed as functional.

The next test deals with T2, Bcl-2-like protein 10 (Homo sapiens, UniProt Q9HD36).
T2 sequence (Q9HD36 whole entry): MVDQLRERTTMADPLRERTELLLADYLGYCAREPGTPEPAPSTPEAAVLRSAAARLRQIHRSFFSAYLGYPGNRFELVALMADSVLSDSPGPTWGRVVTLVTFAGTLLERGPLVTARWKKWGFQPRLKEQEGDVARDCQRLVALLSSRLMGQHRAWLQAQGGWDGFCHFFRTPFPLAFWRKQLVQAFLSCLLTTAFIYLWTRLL
Nature of the test: displacers of TR3 peptide from Bcl-B, primary screen, selectivity assay for Bfl-1 inhibitor project, biochemical, fluorescence polarization, FITC-TR3 peptide (AID 748). (Fluorescence polarisation rises when a labelled molecule tumbles more slowly, as on binding a larger partner.)

The target of test [2] is T3, RNA-binding protein pos-1 (Caenorhabditis elegans, UniProt G5EF15).
T3 sequence (G5EF15 whole entry): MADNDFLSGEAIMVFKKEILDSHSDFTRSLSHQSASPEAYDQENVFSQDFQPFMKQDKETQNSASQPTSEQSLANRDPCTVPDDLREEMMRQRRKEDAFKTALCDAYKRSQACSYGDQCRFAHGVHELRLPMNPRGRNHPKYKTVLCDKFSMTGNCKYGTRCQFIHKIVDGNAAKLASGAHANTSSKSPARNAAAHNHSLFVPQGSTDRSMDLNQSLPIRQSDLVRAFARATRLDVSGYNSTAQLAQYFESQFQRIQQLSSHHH
Nature of the test: inhibitors of POS-1/mex-3 RNA binding, dose response, biochemical, fluorescence polarization (AID 1964).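 Further: purified POS-1 fused to maltose binding protein made in E. coli; potency of compounds blocking POS-1 binding to fluorescent RNA.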

Test [3] addresses T4, Zinc finger protein mex-5 (Caenorhabditis elegans, UniProt Q9XUB2).
T4 sequence (Q9XUB2 whole entry): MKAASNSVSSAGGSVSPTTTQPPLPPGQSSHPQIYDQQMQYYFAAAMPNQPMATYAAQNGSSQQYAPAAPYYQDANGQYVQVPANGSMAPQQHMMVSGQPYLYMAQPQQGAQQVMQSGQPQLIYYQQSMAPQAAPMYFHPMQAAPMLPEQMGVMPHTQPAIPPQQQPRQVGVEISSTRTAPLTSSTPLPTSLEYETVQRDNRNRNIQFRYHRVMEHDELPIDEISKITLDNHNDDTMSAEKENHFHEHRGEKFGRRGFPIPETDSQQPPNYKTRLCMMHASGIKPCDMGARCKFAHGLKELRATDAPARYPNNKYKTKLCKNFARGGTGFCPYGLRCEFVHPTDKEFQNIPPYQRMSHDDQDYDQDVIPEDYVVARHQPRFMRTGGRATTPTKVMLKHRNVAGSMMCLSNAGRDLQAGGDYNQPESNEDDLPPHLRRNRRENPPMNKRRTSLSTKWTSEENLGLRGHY
Nature of the test: MEX-5/TCR-2 RNA interaction inhibitors, dose response, biochemical, C. elegans, fluorescence polarization (AID 1960).

A short description of test [4]: microbe, parasite or virus in culture. The test is classed as functional. The settings on record: Mycobacterium tuberculosis.
Another test is described as follows: cells. In kind it is functional.
Test [5] in a line: THP-1 cell cytotoxicity, dose response, cytotoxicity control for non-replicating M. tuberculosis project (AID 489025). The test is classed as functional.
A short description of test [6]: HepG2 cell cytotoxicity, dose response, cytotoxicity control for non-replicating M. tuberculosis project (AID 489018). The test is classed as functional. The settings on record: Mycobacterium tuberculosis.
The nature of test [7]: HEp-2 cell cytotoxicity, dose response, cytotoxicity control for RSV inhibitor project, HTS (AID 2410). The test is classed as functional. To be noted: human respiratory syncytial virus.
Test [8] is described as follows: A cytotoxicity screen of small molecule inhibitors of the PhoP region in Salmonella typhi identified in the primary screen. [Related pubchem assays: 1850, 1864, 1985 ]. The test is classed as functional.
Test [9] addresses T5, Rac GTPase-activating protein 1 (Homo sapiens, UniProt Q9H0H5).
T5 sequence (Q9H0H5 whole entry): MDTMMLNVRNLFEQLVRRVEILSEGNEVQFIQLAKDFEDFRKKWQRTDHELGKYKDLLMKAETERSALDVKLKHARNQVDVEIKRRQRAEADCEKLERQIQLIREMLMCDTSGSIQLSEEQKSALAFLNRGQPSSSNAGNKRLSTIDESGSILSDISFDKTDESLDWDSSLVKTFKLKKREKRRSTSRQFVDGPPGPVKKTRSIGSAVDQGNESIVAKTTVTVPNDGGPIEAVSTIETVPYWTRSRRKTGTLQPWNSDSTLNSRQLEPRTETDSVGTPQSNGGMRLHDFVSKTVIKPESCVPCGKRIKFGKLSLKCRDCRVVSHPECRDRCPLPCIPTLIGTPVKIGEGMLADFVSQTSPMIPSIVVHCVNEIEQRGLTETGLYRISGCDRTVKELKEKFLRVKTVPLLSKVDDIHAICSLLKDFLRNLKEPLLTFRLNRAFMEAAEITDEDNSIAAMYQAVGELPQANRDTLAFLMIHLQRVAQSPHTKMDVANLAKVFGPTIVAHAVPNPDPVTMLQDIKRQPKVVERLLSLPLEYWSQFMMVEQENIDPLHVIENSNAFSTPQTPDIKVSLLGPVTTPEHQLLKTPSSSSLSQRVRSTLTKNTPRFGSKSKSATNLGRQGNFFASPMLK
Nature of the test: MgcRacGAP GTPase-activating activity inhibitors, confirmation, biochemical, ADP Hunter fluorescence, primary and confirmatory (AID 624330). In kind it is functional.

A further test has as its target Cytochrome P450 3A4 (Homo sapiens, UniProt P08684). The settings on record: Potency.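 Further: confirmatory qHTS run detecting inhibitors and substrates of CYP3A4.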
Test [10] has as its target Intestinal-type alkaline phosphatase (Mus musculus, UniProt P24822). Nature of the test: PubChem AID 488875. In kind it is functional.
In test [11] the target is T6, Alkaline phosphatase, tissue-nonspecific isozyme (Homo sapiens, UniProt P05186).
T6 sequence (P05186 whole entry): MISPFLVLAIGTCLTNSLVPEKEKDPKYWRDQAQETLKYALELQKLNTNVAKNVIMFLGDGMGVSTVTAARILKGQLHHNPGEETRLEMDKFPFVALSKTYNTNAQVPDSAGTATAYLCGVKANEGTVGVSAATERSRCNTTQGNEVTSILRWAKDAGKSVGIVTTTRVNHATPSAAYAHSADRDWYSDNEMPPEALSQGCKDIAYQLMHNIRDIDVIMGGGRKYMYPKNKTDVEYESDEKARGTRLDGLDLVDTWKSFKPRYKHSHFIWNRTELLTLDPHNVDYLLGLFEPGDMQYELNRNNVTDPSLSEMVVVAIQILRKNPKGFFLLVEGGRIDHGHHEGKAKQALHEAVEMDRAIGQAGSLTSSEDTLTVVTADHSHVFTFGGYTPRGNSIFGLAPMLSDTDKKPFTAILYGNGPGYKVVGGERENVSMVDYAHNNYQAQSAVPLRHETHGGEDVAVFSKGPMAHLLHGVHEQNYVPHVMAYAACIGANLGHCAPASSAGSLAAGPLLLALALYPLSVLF
The test can be described thus: TNAP enzyme activators, dose response, selectivity assay for human IAP activator project, biochemical, TNAP isozyme, human IAP uHTS hits (AID 488886).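 Further: potency of compounds raising TNAP activity as a selectivity check on IAP activators.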 The test is classed as functional.

The target of test [12] is T7, Intestinal-type alkaline phosphatase (Homo sapiens, UniProt P09923). Nature of the test: human intestinal alkaline phosphatase activators, dose response, biochemical, luminescence, uHTS hits (AID 463120). The test is classed as functional.
T7 sequence (P09923 whole entry): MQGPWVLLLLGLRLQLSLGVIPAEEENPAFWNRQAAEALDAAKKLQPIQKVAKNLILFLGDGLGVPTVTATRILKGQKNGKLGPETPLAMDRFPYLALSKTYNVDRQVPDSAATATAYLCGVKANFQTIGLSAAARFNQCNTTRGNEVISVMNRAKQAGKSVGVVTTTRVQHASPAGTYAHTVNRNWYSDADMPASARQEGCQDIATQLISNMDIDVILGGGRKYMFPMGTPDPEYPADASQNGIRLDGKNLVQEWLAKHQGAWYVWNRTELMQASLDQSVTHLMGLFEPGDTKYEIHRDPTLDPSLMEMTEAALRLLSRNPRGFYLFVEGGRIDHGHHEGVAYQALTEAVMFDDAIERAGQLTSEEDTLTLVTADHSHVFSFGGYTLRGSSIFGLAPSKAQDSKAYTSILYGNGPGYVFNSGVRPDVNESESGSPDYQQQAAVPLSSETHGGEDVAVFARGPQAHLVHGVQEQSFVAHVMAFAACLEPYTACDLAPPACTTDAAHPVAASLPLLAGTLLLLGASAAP
In test [13] the target is T7, Intestinal-type alkaline phosphatase. The test can be described thus: human IAP activators, dose response, biochemical, luminescent, uHTS hits, set 2 (AID 488817).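 Further: potency of activators that raise enzyme activity.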 In kind it is functional.
In test [14] the target is DNA dC->dU-editing enzyme APOBEC-3G (Homo sapiens, UniProt Q9HC16). In kind it is functional.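 Further: Dose-response counterscreen measuring inhibition of APOBEC3G DNA deaminase activity, run while confirming APOBEC3A inhibitors.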
DNA dC->dU-editing enzyme APOBEC-3G, sequence (Q9HC16 whole entry): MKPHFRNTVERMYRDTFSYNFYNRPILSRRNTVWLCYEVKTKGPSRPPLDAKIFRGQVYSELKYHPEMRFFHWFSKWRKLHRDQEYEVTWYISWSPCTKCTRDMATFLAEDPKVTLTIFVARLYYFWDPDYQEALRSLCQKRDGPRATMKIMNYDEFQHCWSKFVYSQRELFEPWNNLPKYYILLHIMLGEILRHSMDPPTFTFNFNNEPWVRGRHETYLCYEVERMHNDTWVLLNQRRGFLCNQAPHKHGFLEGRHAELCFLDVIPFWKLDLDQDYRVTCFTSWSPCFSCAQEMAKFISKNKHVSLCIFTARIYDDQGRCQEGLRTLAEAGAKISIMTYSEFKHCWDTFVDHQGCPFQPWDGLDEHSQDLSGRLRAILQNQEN
Test [15] deals with DNA dC->dU-editing enzyme APOBEC-3A (Homo sapiens, UniProt P31941). Nature of the test: Dose Response confirmation of small molecule APOBEC3A DNA Deaminase Inhibitors via a fluorescence-based single-stranded DNA deaminase assay. [Related pubchem assays (depositor defined):AID493011, AID493024]. The test is classed as functional.
DNA dC->dU-editing enzyme APOBEC-3A, sequence (P31941 whole entry, the tested form may be a part): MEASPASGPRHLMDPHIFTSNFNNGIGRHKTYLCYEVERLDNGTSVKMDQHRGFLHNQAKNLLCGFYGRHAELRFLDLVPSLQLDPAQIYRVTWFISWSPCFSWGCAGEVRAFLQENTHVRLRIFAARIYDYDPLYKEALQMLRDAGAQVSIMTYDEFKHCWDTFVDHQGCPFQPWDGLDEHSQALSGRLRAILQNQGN
Test [16] has as its target T8, Carboxy-terminal domain RNA polymerase II polypeptide A small phosphatase 1 (Homo sapiens, UniProt Q9GZU7).
T8 sequence (Q9GZU7 whole entry): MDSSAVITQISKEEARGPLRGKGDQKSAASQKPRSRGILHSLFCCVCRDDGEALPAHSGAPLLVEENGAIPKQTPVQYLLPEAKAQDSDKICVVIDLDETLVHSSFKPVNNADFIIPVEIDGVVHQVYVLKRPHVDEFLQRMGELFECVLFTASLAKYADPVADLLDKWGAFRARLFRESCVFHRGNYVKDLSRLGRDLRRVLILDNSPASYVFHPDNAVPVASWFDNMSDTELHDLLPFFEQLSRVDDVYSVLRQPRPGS
Nature of the test: inhibitors of CTDSP1, concentration-response testing, biochemical assay, absorbance-based, actives from ultra-high-throughput screening (AID 540297). The test is classed as functional.

Test [17] has as its target T9, Voltage-gated N-type calcium channel alpha-1B subunit/Amyloid beta A4 precursor protein-binding family A member 1 (Homo sapiens, UniProt Q00975+Q02410). In kind it is protein assay.
For test [18], the target named is T9, Voltage-gated N-type calcium channel alpha-1B subunit/Amyloid beta A4 precursor protein-binding family A member 1. In kind it is protein assay. The source holds these as a separate data set.

The source made the active and inactive calls.

Cytochrome P450 3A4, sequence (P08684 whole entry): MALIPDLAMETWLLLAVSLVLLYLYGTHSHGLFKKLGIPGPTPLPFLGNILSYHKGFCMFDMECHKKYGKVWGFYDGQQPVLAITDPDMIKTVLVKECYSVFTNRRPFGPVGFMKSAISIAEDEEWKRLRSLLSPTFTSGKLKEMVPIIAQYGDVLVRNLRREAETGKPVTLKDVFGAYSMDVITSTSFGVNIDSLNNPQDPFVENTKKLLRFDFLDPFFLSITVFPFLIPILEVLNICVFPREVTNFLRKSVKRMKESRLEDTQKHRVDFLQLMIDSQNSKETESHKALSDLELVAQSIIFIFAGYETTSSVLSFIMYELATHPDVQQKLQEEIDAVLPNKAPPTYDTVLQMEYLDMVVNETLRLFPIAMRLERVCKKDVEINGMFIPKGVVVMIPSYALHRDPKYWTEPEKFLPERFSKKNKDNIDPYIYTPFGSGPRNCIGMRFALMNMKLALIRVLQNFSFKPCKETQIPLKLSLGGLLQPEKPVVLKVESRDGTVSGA
T9 sequence (Q00975 whole entry): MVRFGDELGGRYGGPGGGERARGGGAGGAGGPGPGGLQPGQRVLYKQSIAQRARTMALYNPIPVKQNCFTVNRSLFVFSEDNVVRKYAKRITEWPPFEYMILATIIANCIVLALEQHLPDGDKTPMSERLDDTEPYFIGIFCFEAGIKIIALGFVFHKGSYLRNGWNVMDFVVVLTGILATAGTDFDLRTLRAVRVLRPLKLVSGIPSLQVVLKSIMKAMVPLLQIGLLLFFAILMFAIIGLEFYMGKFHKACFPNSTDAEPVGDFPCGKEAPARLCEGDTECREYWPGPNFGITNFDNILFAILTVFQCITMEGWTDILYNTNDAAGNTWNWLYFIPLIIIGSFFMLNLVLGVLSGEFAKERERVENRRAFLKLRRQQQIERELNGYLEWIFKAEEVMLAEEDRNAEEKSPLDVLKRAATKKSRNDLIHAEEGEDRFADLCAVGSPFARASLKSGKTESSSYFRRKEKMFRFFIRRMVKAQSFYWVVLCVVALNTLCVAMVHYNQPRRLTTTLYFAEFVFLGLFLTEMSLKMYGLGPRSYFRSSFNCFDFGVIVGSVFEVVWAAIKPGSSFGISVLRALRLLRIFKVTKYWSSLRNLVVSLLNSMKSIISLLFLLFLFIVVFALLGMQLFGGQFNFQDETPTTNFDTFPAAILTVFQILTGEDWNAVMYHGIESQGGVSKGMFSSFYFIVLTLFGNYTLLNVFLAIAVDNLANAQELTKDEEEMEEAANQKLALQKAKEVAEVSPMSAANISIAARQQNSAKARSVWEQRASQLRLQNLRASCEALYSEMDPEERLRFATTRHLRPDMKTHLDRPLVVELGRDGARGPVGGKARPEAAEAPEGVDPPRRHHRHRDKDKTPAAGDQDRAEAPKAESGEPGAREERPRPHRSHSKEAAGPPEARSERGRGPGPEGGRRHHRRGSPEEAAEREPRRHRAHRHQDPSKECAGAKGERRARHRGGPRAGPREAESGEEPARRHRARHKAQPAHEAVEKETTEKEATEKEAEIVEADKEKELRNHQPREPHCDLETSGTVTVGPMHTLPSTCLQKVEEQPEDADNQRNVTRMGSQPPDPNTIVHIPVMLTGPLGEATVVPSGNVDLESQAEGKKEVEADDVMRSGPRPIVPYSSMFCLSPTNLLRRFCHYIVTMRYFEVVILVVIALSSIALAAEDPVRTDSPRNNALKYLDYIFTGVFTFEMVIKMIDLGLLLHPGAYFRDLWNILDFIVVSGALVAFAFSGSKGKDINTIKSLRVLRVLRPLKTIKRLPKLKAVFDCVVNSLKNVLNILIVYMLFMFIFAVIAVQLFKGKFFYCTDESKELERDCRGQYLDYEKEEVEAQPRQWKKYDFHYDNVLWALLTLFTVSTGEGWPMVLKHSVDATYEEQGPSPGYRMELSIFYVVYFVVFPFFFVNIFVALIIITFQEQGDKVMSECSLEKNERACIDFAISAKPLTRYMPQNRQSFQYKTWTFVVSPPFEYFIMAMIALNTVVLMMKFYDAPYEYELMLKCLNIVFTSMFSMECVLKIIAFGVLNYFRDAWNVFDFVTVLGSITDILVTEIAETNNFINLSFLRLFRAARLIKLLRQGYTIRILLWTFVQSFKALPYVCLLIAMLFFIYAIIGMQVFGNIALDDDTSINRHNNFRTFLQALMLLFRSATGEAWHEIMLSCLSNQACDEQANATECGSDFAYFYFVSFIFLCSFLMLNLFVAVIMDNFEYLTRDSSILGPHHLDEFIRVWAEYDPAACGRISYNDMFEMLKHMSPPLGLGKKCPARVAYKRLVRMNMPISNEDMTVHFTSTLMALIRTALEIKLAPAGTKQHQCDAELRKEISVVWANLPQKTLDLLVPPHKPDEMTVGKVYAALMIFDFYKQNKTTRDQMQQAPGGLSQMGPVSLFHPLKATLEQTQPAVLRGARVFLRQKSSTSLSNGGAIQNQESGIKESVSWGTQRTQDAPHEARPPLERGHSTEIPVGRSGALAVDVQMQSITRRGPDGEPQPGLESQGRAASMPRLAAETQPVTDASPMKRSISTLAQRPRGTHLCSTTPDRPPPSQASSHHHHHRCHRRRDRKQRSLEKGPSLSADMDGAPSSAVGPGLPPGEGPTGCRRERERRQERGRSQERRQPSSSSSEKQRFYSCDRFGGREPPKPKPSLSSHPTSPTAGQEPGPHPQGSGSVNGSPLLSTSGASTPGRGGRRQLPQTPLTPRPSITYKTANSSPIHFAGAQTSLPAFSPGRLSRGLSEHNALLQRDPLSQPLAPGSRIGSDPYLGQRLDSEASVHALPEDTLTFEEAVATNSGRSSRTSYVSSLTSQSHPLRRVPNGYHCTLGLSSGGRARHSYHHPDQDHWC
T9 sequence (Q02410 whole entry): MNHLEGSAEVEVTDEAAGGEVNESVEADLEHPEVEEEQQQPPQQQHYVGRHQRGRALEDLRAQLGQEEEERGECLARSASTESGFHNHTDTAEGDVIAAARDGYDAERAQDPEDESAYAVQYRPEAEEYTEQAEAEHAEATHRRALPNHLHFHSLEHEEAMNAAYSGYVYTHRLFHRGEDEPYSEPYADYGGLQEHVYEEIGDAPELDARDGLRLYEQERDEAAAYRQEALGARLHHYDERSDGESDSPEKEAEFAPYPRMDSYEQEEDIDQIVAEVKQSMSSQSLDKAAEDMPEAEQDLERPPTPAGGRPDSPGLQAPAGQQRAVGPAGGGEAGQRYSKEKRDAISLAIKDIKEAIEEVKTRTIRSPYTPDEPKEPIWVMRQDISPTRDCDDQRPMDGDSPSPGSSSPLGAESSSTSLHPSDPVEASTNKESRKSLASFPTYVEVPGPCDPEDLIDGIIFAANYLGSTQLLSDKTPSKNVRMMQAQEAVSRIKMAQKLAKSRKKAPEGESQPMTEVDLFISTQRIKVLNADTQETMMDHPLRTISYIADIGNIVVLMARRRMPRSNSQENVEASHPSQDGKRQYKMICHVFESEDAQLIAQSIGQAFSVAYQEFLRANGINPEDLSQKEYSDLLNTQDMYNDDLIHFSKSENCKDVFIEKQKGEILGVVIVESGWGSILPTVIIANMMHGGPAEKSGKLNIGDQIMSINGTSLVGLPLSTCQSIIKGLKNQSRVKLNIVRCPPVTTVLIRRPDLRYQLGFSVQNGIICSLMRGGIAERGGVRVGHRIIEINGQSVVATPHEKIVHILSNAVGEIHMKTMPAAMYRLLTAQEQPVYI

Take `Cc1cc(NS(=O)(=O)c2ccc(NC(=O)CCN3C(=O)c4ccccc4C3=O)cc2)no1`: in test [1], the EC50 is listed as > 50 µM (not active).

`COc1ccc(S(=O)(=O)N(CC(=O)NCC2CCCO2)c2ccccc2)cc1OC` (centres undefined): the EC50 in [1] was > 50 µM (not active).

For the compound `N=c1c(C(=O)NCC2CCCO2)cc2c(=O)n3ccccc3nc2n1Cc1cccnc1` (centres undefined), the IC50 at Bcl-2-like protein 10 was > 25 µM (inactive). In addition, the EC50 in [2] is 17.1 µM (active); in [3], 12.2 µM (active).

As for `C=CCNCC(=O)N1N=C(c2ccc3ccccc3c2)CC1c1ccc(OC)cc1` (centres undefined), the CC50 in test [4] is 25.5 µM (active); in [5], 23.5 µM (active); in test [6], > 20 µM (active); in test [7], 14.9 µM (active). In the test “cells”, the IC50 is 18.1 µM (active).

`CC(=O)N(CCC1(c2ccc(C)cc2)CCOC(C(C)C)C1)Cc1ccco1` (centres undefined): the EC50 in test [8] was > 50 µM (active).

For the compound `C=CCNS(=O)(=O)c1nc(C)c(Cl)c(C)c1C#N`, at Bcl-2-like protein 10, the IC50 is > 100 µM (inactive).

`Oc1cccc(Nc2ccccc2)c1`: in test [9], the IC50 is 62.6 µM (active). Further, the AC50 on Cytochrome P450 3A4 is 15.8 µM (inconclusive).

Regarding `CCOc1ccccc1-n1c(SCC(N)=O)nnc1-c1ccc(O)cc1`, the EC50 in [1] is recorded as > 50 µM (not active).

In the case of `COc1ccccc1N(C)S(=O)(=O)c1ccc(Cl)c(C(=O)NNC(=O)c2ccccc2O)c1`, the EC50 was > 100 µM (inactive) in test [10], 26.5 µM (active) in test [11], 11.5 µM (active) in test [12] and 15.7 µM (active) in test [13].

As for `CCOC(=O)C[n+]1c(C)n(C)c2cc(Cl)c(Cl)cc21`, the IC50 is 2.2 µM (active) in test [14] and 2.26 µM (active) in test [15].

As for `COC(=O)c1ccccc1NC(=O)c1cc[n+](C)cc1`, the 50% inhibitory concentration (IC50) is 4.04 µM (active) in test [14] and 3.62 µM (active) in test [15].

As to `O=C(N/N=C/c1c(F)cccc1Cl)c1cc(C2CC2)[nH]n1`, the EC50 in [10] is > 100 µM (inactive); in test [11], 41.3 µM (active); in test [12], 21.5 µM (active); in test [13], 40.6 µM (active).

For the compound `CCOc1ccc(/N=C2/SCCCN2C)cc1`, the IC50 in test [14] was 2.35 µM (active); in [15], 2.19 µM (active); in test [16] it was 17 µM (active).

On to `N#CCC(=O)N/N=C/c1cn(Cc2ccc(Cl)c(Cl)c2)c2ccccc12`, for which the IC50 is > 50 µM (inactive) in test [17] and > 56.8 µM (not active) in test [18].

As for `O=C(NC1CCCCC1)NC1CCCCC1` [1,3-DICYCLOHEXYLUREA], the AC50 on Cytochrome P450 3A4 was 3.16 µM (inconclusive).

On to `CC1(C)CC2C1CCC1(C)OC2(C)CCC1O` (centres undefined) [3,7-EPOXYCARYOPHYLLAN-6-OL], for which, at Cytochrome P450 3A4, the AC50 is 25.1 µM (inconclusive).
